Laboratory results: publication PMC8201735 (BMC Pharmacology & Toxicology, 2021)
Values joined by “and” are separate entries in the source; they are usually repeats but may differ in a detail not shown here. Identical values can stand only once. Like-named read-outs stand apart in the source and are kept apart here.

Key:
[1] = Plasma pharmacokinetics of remogliflozin etabonate and its metabolites during metformin treatment; format: in vivo, human; conditions: for AUC(0-t) / Cmax / Tmax: human, plasma, oral; for AUC(0-t): read-out: AUC (0-last), geometric mean (%CVb); for Cmax: read-out: Cmax, geometric mean (%CVb); for Tmax: read-out: tmax, median (range)
Method: (§1) PK analysis was conducted by […] (Chapel Hill, NC, USA), under the direction of Clinical Pharmacokinetics/Modelling and Simulation, GSK using the non-compartmental analysis Model 200 (for extra vascular administration) of WinNonlin Professional Edition version 4.1 (Pharsight Corporation, Mountain View, CA). […] Descriptive statistics were used to summarize baseline demographics, safety data, and pharmacokinetic parameters. Geometric mean and % CVb (between-subject coefficient of variation) were calculated for all pharmacokinetic parameters except tmax. Comparisons of placebo with each active dose of RE were assessed in terms of change from baseline in fasting plasma lactate acid using repeated measures analysis of covariance model. The model included terms for baseline measurement, visit, treatment and visit-by-treatment interaction. The same model was applied to change from baseline in weighted means of day-time, night-time and 0-24 h of blood pressures. Within group treatment comparison was performed using mixed model on log transformed Cmax and AUC (0-last).

subjects with T2DM [2] = experiment: Oral glucose tolerance test (75 g): weighted mean plasma glucose and insulin; format: in vivo, human
Method: Oral glucose tolerance testing was performed on Day 1 and Day 13 using a 75 g oral glucose solution. Blood samples for the measurement of insulin and glucose were taken immediately before drug dosing (within 5 min of drug dosing), and at 30 min, 1, 1.5, 2, 3, 4, and 6 h following drug dosing.

[3] = Plasma pharmacokinetics of metformin with and without RE; format: in vivo, human; conditions: RE 500 mg or 750 mg BID with metformin
Method: as §1

Body weight = format: in vivo, human; conditions: for Change from baseline in body weight, Mean (SD): Day 2
Method: Body weight measurement was performed at screening and during inpatient Days- 1, 2, 4, 8, 13, and 14.

subjects with T2DM [4] = experiment: Adverse event monitoring, RE co-administered with metformin for 13 days; format: in vivo, human; conditions: for Any AE / Tolerability of co-administration with metformin: 13 days; for Tolerability of co-administration with metformin: RE 500 or 750 mg BID + metformin >=2000 mg/day
Excerpt: The study was comprised of three phases; run-in, randomization, and treatment. […] In treatment phase the patients were considered in two cohorts. […] The adverse events monitoring included recording of any adverse event (AE) and serious adverse event (SAE) reported or observed during the entire study and follow-up period. All the subjects were counseled to inform study staff of any AEs that occurred during the study. Any abnormal laboratory findings (e.g., clinical chemistry, hematology, and urinalysis) or other abnormal assessments (e.g., ECGs, vital signs, physical examination) that were judged by the investigator as clinically significant were recorded as AEs or SAE.

T2DM patients = tested on: T2DM patients; parameters: method as in PMID 32162274; conditions: T2DM patients on daily metformin therapy (> 1500 mg) over 24 weeks; cited from earlier work
subjects with T2DM [5] = experiment: Oral glucose tolerance test (75 g): weighted mean plasma glucose and insulin; format: in vivo, human; conditions: Day -1 (baseline)
[6] = parameters: method as in PMID 25934577; conditions: repeat dosing PK; cited from earlier work
subjects with T2DM [7] = experiment: Surveillance for lactic acidosis: fasting plasma lactic acid concentration; format: in vivo, human
Method: The samples for acidosis analysis were collected at screening (following an overnight fast and prior to morning dose), once during the run-in phase, at baseline (Day- 1), mornings (prior to first dose and breakfast) of Days 1, 2, 3, and 4 (inpatient) and Days 6, 8, and 10 (outpatient) and Days 13 and 14 (inpatient). Subjects were not allowed to do rigorous exercise or physical labor during the treatment phase of the study and instructed to limit exercise 12 h before sampling.
Descriptive statistics were used to summarize baseline demographics, safety data, and pharmacokinetic parameters. Geometric mean and % CVb (between-subject coefficient of variation) were calculated for all pharmacokinetic parameters except tmax. Comparisons of placebo with each active dose of RE were assessed in terms of change from baseline in fasting plasma lactate acid using repeated measures analysis of covariance model. The model included terms for baseline measurement, visit, treatment and visit-by-treatment interaction. The same model was applied to change from baseline in weighted means of day-time, night-time and 0–24 h of blood pressures. Within group treatment comparison was performed using mixed model on log transformed Cmax and AUC (0-last).

[8] = 500 mg, Day 1, after RE 500 mg BID + metformin, N = 16
[9] = 500 mg, Day 13, after RE 500 mg BID + metformin, N = 15
[10] = 750 mg, Day 1, after RE 750 mg BID + metformin, N = 17
[11] = 750 mg, Day 13, after RE 750 mg BID + metformin, N = 16
[12] = RE 500 mg BID + metformin, N = 16
[13] = RE 750 mg BID + metformin, N = 17
[14] = Study Day 2, RE 750 mg BID + metformin
[15] = Study Day 6, RE 750 mg BID + metformin

CCOC(=O)OC[C@H]1O[C@@H](Oc2nn(C(C)C)c(C)c2Cc2ccc(OC(C)C)cc2)[C@H](O)[C@@H](O)[C@@H]1O [RE, remogliflozin etabonate]
AUC(0-last) accumulation ratio Day 13 versus Day 1, point estimate (90% CI) ([1]; RE 500 mg + Metformin): 0.99 (0.857–1.15)
AUC(0-last) accumulation ratio Day 13 versus Day 1, point estimate (90% CI) ([1]; RE 750 mg + Metformin): 1.02 (0.861–1.21)
AUC(0-t) ([1]; 500 mg, Day 1, RE 500 mg BID + metformin, N = 16): 70.9 ng·h/mL
Cmax [1, 8]: 64.8 ng/mL
Tmax [1, 8]: 37.8 min
AUC(0-t) ([1]; 500 mg, Day 13, RE 500 mg BID + metformin, N = 15): 73.5 ng·h/mL
Cmax [1, 9]: 53.3 ng/mL
Tmax [1, 9]: 30 min
AUC(0-t) ([1]; 750 mg, Day 1, RE 750 mg BID + metformin, N = 17): 121 ng·h/mL
Cmax [1, 10]: 137 ng/mL
Tmax [1, 10]: 30 min
AUC(0-t) ([1]; 750 mg, Day 13, RE 750 mg BID + metformin, N = 16): 121 ng·h/mL
Cmax [1, 11]: 101 ng/mL
Tmax [1, 11]: 28.8 min
Weighted mean plasma glucose following OGTT, Mean (SD) (subjects with T2DM [2]; Day 1 (baseline), RE 500 mg + Metformin): 13 mmol/L and 13.03 (1.929) mmol/L
Weighted mean plasma glucose following OGTT, Mean (SD) (subjects with T2DM [2]; Day 1 (baseline), RE 750 mg + Metformin): 11 mmol/L and 11.49 (3.536) mmol/L
Weighted mean plasma glucose following OGTT, Mean (SD) (subjects with T2DM [2]; Day 13, RE 500 mg + Metformin): 9 mmol/L and 9.45 (1.502) mmol/L
Weighted mean plasma insulin following OGTT, Mean (SD) (subjects with T2DM [2]; Day 13, RE 500 mg + Metformin): 142.15 (67.626) pmol/L
Weighted mean plasma glucose following OGTT, Mean (SD) (subjects with T2DM [2]; Day 13, RE 750 mg + Metformin): 8 mmol/L and 8.84 (1.656) mmol/L
Weighted mean plasma insulin following OGTT, Mean (SD) (subjects with T2DM [2]; Day 13, RE 750 mg + Metformin): 171.57 (74.178) pmol/L
Weighted mean plasma glucose, change from baseline, Mean (SD) (subjects with T2DM [2]; RE 500 mg + Metformin): −3.50 (2.012) mmol/L
Weighted mean plasma insulin, change from baseline, Mean (SD) (subjects with T2DM [2]; RE 500 mg + Metformin): −44.80 (52.746) pmol/L
Weighted mean plasma glucose, change from baseline, Mean (SD) (subjects with T2DM [2]; RE 750 mg + Metformin): −2.77 (2.262) mmol/L
Weighted mean plasma insulin, change from baseline, Mean (SD) (subjects with T2DM [2]; RE 750 mg + Metformin): −18.95 (47.360) pmol/L
Effect of RE on the pharmacokinetics of metformin [3]: no effect
Change from baseline in body weight, Mean (SD) (Body weight; RE 500 mg + Metformin): −1.03 (0.994) kg
Change from baseline in body weight, Mean (SD) (Body weight; RE 750 mg + Metformin): −1.04 (1.210) kg
Additional body weight lost in the RE groups compared to metformin alone (Body weight; by Day 14, RE 500 or 750 mg BID + metformin vs placebo + metformin): ~1 kg
Any AE (subjects with T2DM [4]; RE 500 mg BID + metformin >=2000 mg/day, N = 16): 6 (38%) N(%)
Dizziness (subjects with T2DM [4]; [12]): 1 (6%) N(%)
Nausea (subjects with T2DM [4]; [12]): 1 (6%) N(%)
Thirst (subjects with T2DM [4]; [12]): 0 N(%)
Post-therapy AEs (subjects with T2DM [4]; RE 750 mg + metformin group): no post-therapy AEs
Subjects with hypoglycemic laboratory events (subjects with T2DM [4]; RE 750 mg + metformin group, moderate, resolved with sweets): one
Any AE (subjects with T2DM [4]; RE 750 mg BID + metformin >=2000 mg/day, N = 17): 4 (24%) N(%)
Diarrhoea (subjects with T2DM [4]; [13]): 1 (6%) N(%)
Dizziness (subjects with T2DM [4]; [13]): 1 (6%) N(%)
Dyslipidemia (subjects with T2DM [4]; [13]): 0 N(%)
Nausea (subjects with T2DM [4]; [13]): 1 (6%) N(%)
Supraventricular tachycardia (subjects with T2DM [4]; [13]): 0 N(%)
Urinary tract infection (subjects with T2DM [4]; [13]): 0 N(%)
Vomiting (subjects with T2DM [4]; [13]): 1 (6%) N(%)
Tolerability of co-administration with metformin (subjects with T2DM [4]): generally well tolerated
Tolerability of co-administration with metformin (subjects with T2DM [4]; listed as remogliflozin etabonate): well tolerated
Glycemic efficacy (T2DM patients): comparable to dapagliflozin
Weighted mean plasma insulin following OGTT, Mean (SD) (subjects with T2DM [5]; RE 500 mg + Metformin): 190.96 (100.420) pmol/L
Weighted mean plasma insulin following OGTT, Mean (SD) (subjects with T2DM [5]; RE 750 mg + Metformin): 191.52 (83.045) pmol/L
Increase in AUC on repeat dosing [6]: 10%
Increase in t1/2 on repeat dosing [6]: 10%
Fasting plasma lactic acid, maximum on-therapy absolute values, Mean (SD) (subjects with T2DM [7]; RE 500 mg BID + metformin): 1.220 (0.2684) mmol/L
Fasting plasma lactic acid, maximum on-therapy change from baseline, Mean (SD) (subjects with T2DM [7]; RE 500 mg BID + metformin): 0.234 (0.3717) mmol/L
Fasting plasma lactic acid, maximum on-therapy absolute values, Mean (SD) (subjects with T2DM [7]; RE 750 mg BID + metformin): 1.508 (0.4389) mmol/L
Fasting plasma lactic acid, maximum on-therapy change from baseline, Mean (SD) (subjects with T2DM [7]; RE 750 mg BID + metformin): 0.249 (0.5934) mmol/L
Fasting plasma lactic acid change from baseline, Mean (SD) (subjects with T2DM [7]; Study Day 2, RE 500 mg BID + metformin): −0.07 (0.248) mmol/L
Fasting plasma lactic acid change from baseline, Difference vs. placebo (95% CI), ANCOVA (subjects with T2DM [7]; [14]): −0.246(− 0.445, − 0.047) mmol/L
Fasting plasma lactic acid change from baseline, Mean (SD) (subjects with T2DM [7]; [14]): −0.17 (0.419) mmol/L
Fasting plasma lactic acid change from baseline, Difference vs. placebo (95% CI), ANCOVA (subjects with T2DM [7]; Study Day 6, RE 500 mg BID + metformin): −0.380 (− 0.603, − 0.157) mmol/L
Fasting plasma lactic acid change from baseline, Mean (SD) (subjects with T2DM [7]; Study Day 6, RE 500 mg BID + metformin, n = 15): −0.26 (0.310) mmol/L
Fasting plasma lactic acid change from baseline, Difference vs. placebo (95% CI), ANCOVA (subjects with T2DM [7]; [15]): −0.254(− 0.472, − 0.036) mmol/L
Fasting plasma lactic acid change from baseline, Mean (SD) (subjects with T2DM [7]; [15]): −0.26 (0.538) mmol/L
Fasting plasma lactic acid change from baseline, Difference vs. placebo (95% CI), ANCOVA (subjects with T2DM [7]; Study Day 13, RE 500 mg BID + metformin): −0.191 (− 0.414, 0.031) mmol/L
Fasting plasma lactic acid change from baseline, Mean (SD) (subjects with T2DM [7]; Study Day 13, RE 500 mg BID + metformin, n = 15): −0.15 (0.485) mmol/L
Fasting plasma lactic acid change from baseline, Difference vs. placebo (95% CI), ANCOVA (subjects with T2DM [7]; Study Day 13, RE 750 mg BID + metformin): −0.255 (− 0.475, − 0.034) mmol/L
Fasting plasma lactic acid change from baseline, Mean (SD) (subjects with T2DM [7]; Study Day 13, RE 750 mg BID + metformin, n = 16): −0.33 (0.398) mmol/L
Subjects with lactic acid greater than the upper limits of normal (ULN) at any time (subjects with T2DM [7]; receiving RE, not sustained, minimally above ULN): one
